Results as given in PubChem BioAssay AID330 (DTP/NCI, 2004).
Several values for one entry are separate records, joined by “and”; a condition that tells them apart may be missing. Identical values can stand only once. Toxic doses and inconclusive results are not listed. How the source made its calls: active means survival T/C of 150% or more; inactive means T/C below 125% in these data. Bridge positions count the residues as written; N and C are the ends. Peptide text beside a SMILES is read from it. I, II: the chains in the order shown. * marks the point of attachment. Cbz = O=C(OCc1ccccc1)*

Test system: P388 leukemia ip, CD2F1 mice, survival T/C
Experiment: NCI In Vivo Anticancer Drug Screen. Data for tumor model P388 Leukemia (intraperitoneal) in CD2F1 (CDF1) mice
Details: endpoint: median survival time, higher = longer survival
How it was run: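 Mice carrying the transplanted tumor received test compound or vehicle. Survival was recorded in each group, and the value is the treated-group measurement divided by that of the vehicle-treated control group.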

[1] = dose: 50.0 mg/kg/injection, schedule: Q01DX005 (ip), vehicle: Klucel (hydroxypropylcellulose) (HPC)
[2] = dose: 100.0 mg/kg/injection, schedule: Q01DX005 (ip), vehicle: Klucel (hydroxypropylcellulose) (HPC)
[3] = dose: 200.0 mg/kg/injection, schedule: Q01DX005 (ip), vehicle: Klucel (hydroxypropylcellulose) (HPC)
[4] = dose: 12.5 mg/kg/injection, schedule: Q01DX005 (ip), vehicle: Klucel (hydroxypropylcellulose) (HPC)
[5] = dose: 25.0 mg/kg/injection, schedule: Q01DX005 (ip), vehicle: Klucel (hydroxypropylcellulose) (HPC)
[6] = dose: 50.0 mg/kg/injection, schedule: Q01DX009 (ip), vehicle: Klucel (hydroxypropylcellulose) (HPC)
[7] = dose: 100.0 mg/kg/injection, schedule: Q01DX009 (ip), vehicle: Klucel (hydroxypropylcellulose) (HPC)
[8] = dose: 200.0 mg/kg/injection, schedule: Q01DX009 (ip), vehicle: Klucel (hydroxypropylcellulose) (HPC)
[9] = dose: 25.0 mg/kg/injection, schedule: Q01DX009 (ip), vehicle: Klucel (hydroxypropylcellulose) (HPC)
[10] = dose: 50.0 mg/kg/injection, schedule: Q01DX005 (ip), vehicle: saline with Tween-80
[11] = dose: 100.0 mg/kg/injection, schedule: Q01DX005 (ip), vehicle: saline with Tween-80
[12] = dose: 200.0 mg/kg/injection, schedule: Q01DX005 (ip), vehicle: saline with Tween-80

Measured: T/C

C#CC(=O)CCC
inactive: dose: 3.75 mg/kg/injection, schedule: Q01DX005 (ip), vehicle: saline with Tween-80 113 % of control | dose: 7.5 mg/kg/injection, schedule: Q01DX005 (ip), vehicle: saline with Tween-80 106 % of control | dose: 15.0 mg/kg/injection, schedule: Q01DX005 (ip), vehicle: saline with Tween-80 105 % of control

Cc1cccc(Nc2ncnc3nc[nH]c23)c1
inactive: [1] 100 % of control | [2] 91 % of control | [3] 94 % of control

CCCCNC(=O)N(CC)c1ccccc1
inactive: dose: 100.0 mg/kg/injection, schedule: Q01DX001 (ip), vehicle: saline 109 % of control | dose: 200.0 mg/kg/injection, schedule: Q01DX001 (ip), vehicle: saline 113 % of control | dose: 400.0 mg/kg/injection, schedule: Q01DX001 (ip), vehicle: saline 109 % of control

CCCCC(NC(=O)CNC(=O)OCc1ccccc1)C(=O)O (centres undefined)
inactive: [1] 90 % of control | [2] 104 % of control | [3] 95 % of control

CC(=O)Nc1ccc(Cl)cc1C(Cl)c1ccccc1 (centres undefined)
inactive: [4] 109 % of control | [5] 118 % of control | [1] 123 % of control and 124 % of control | [2] 115 % of control

Cc1ccc(C(=O)Nc2ccccn2)cc1
inactive: [6] 100 % of control | [7] 93 % of control | [8] 100 % of control

CC1NC(=O)C(NC(=O)OCc2ccccc2)COC(=O)C(C(C)C)NC(=O)C2CSSCC(NC1=O)C(=O)NC(C(C)C)C(=O)OCC(NC(=O)OCc1ccccc1)C(=O)NC(C)C(=O)N2 (centres undefined) (I: Cbz-SACV / II: Cbz-SACV; ester I:1-II:C, I:C-II:1; disulfide I:3-II:3; configuration not given here)
inactive: dose: 1.25 mg/kg/injection, schedule: Q01DX005 (ip), vehicle: Klucel (hydroxypropylcellulose) (HPC) 101 % of control | dose: 2.5 mg/kg/injection, schedule: Q01DX005 (ip), vehicle: Klucel (hydroxypropylcellulose) (HPC) 101 % of control | dose: 5.0 mg/kg/injection, schedule: Q01DX005 (ip), vehicle: Klucel (hydroxypropylcellulose) (HPC) 99 % of control | dose: 10.0 mg/kg/injection, schedule: Q01DX005 (ip), vehicle: Klucel (hydroxypropylcellulose) (HPC) 96 % of control | [4] 96 % of control | [5] 96 % of control | [1] 99 % of control

CCOC(=O)COC1=NN(c2cccc(C(F)(F)F)c2)CC1
inactive: dose: 100.0 mg/kg/injection, schedule: Q04DX003 (ip), vehicle: Klucel (hydroxypropylcellulose) (HPC) 110 % of control | dose: 200.0 mg/kg/injection, schedule: Q04DX003 (ip), vehicle: Klucel (hydroxypropylcellulose) (HPC) 110 % of control | dose: 400.0 mg/kg/injection, schedule: Q04DX003 (ip), vehicle: Klucel (hydroxypropylcellulose) (HPC) 109 % of control

COC1/C=C\OC2(C)Oc3c(C)c(O)c4c(O)c(c5sc(N)nc5c4c3C2=O)NC(=O)/C(C)=C\C=C\C(C)C(O)C(C)C(O)C(C)C(OC(C)=O)C1C (centres undefined)
inactive: [9] 100 % of control | [6] 102 % of control | [7] 100 % of control | [8] 100 % of control

CNc1ncnc2ccccc12
inactive: dose: 25.0 mg/kg/injection, schedule: Q01DX009 (ip), vehicle: saline with Tween-80 100 % of control | dose: 50.0 mg/kg/injection, schedule: Q01DX009 (ip), vehicle: saline with Tween-80 95 % of control | dose: 100.0 mg/kg/injection, schedule: Q01DX009 (ip), vehicle: saline with Tween-80 89 % of control

CCc1nn2c(-c3cnns3)nnc2s1
inactive: dose: 100.0 mg/kg/injection, schedule: Q01DX001 (ip), vehicle: Klucel (hydroxypropylcellulose) (HPC) 99 % of control | dose: 200.0 mg/kg/injection, schedule: Q01DX001 (ip), vehicle: Klucel (hydroxypropylcellulose) (HPC) 104 % of control | dose: 400.0 mg/kg/injection, schedule: Q01DX001 (ip), vehicle: Klucel (hydroxypropylcellulose) (HPC) 99 % of control

CN1CCC(C(c2ccccc2)c2ccccc2)C1 (centres undefined)
inactive: dose: 12.5 mg/kg/injection, schedule: Q01DX009 (ip), vehicle: Klucel (hydroxypropylcellulose) (HPC) 100 % of control | [9] 102 % of control | [6] 105 % of control

CC(=O)O[C@H]1[C@@H](C(C)C)CC[C@@]2(C)[C@H](Br)CC[C@@](C)(O)[C@H]12
inactive: dose: 20.0 mg/kg/injection, schedule: Q01DX005 (ip), vehicle: other 105 % of control | dose: 40.0 mg/kg/injection, schedule: Q01DX005 (ip), vehicle: other 105 % of control | dose: 80.0 mg/kg/injection, schedule: Q01DX005 (ip), vehicle: other 105 % of control

CC(C)=CCCC(C)=CCON(C)C (mixture of isomers)
inactive: dose: 100.0 mg/kg/injection, schedule: Q04DX002 (ip), vehicle: saline with Tween-80 92 % of control | dose: 200.0 mg/kg/injection, schedule: Q04DX002 (ip), vehicle: saline with Tween-80 101 % of control

CCC1=C(C)CC(CC(=O)OC)C1=O (centres undefined)
inactive: dose: 50.0 mg/kg/injection, schedule: Q01DX005 (ip), vehicle: saline 95 % of control | dose: 100.0 mg/kg/injection, schedule: Q01DX005 (ip), vehicle: saline 97 % of control | dose: 200.0 mg/kg/injection, schedule: Q01DX005 (ip), vehicle: saline 98 % of control

O=C1OC(=O)c2ccc3c4c(ccc1c24)C(=O)OC3=O
inactive: [10] 104 % of control | [11] 105 % of control

Cc1ccc(S(=O)(=O)Cc2ccccc2)cc1
inactive: dose: 50.0 mg/kg/injection, schedule: Q04DX003 (ip), vehicle: other 90 % of control | dose: 100.0 mg/kg/injection, schedule: Q04DX003 (ip), vehicle: other 95 % of control | dose: 200.0 mg/kg/injection, schedule: Q04DX003 (ip), vehicle: other 90 % of control

O=C1N[C@H]2CS(=O)(=O)C[C@H]2N1
inactive: [10] 100 % of control | [11] 104 % of control | [12] 93 % of control

CC(C)C(=O)OC1(C(C)c2ccccc2)C(=O)NC(=O)NC1=O (centres undefined)
inactive: dose: 7.5 mg/kg/injection, schedule: Q01DX005 (ip), vehicle: Klucel (hydroxypropylcellulose) (HPC) 98 % of control | dose: 15.0 mg/kg/injection, schedule: Q01DX005 (ip), vehicle: Klucel (hydroxypropylcellulose) (HPC) 102 % of control

CCOc1c(N=Nc2ccccc2Cl)c(-c2ccccc2)nn1C(N)=S
inactive: [10] 94 % of control | [11] 90 % of control | [12] 102 % of control

O=C(CSCC(=O)c1ccc([N+](=O)[O-])cc1)c1ccc([N+](=O)[O-])cc1
inactive: [10] 94 % of control | [11] 96 % of control | [12] 87 % of control

CN(C)C1C(O)C2Oc3c(cc(O)c4c3C(=O)c3cc5c(c(O)c3C4=O)C(OCC3COC(C)(C)O3)CC(C)(O)C5)C(C)(O2)C1O (centres undefined)
inactive: dose: 2.0 mg/kg/injection, schedule: Q01DX009 (ip), vehicle: other 105 % of control | dose: 4.0 mg/kg/injection, schedule: Q01DX009 (ip), vehicle: other 117 % of control | dose: 8.0 mg/kg/injection, schedule: Q01DX009 (ip), vehicle: other 123 % of control | dose: 16.0 mg/kg/injection, schedule: Q01DX009 (ip), vehicle: other 123 % of control

COC(=O)[C@@H]1CCC(/C(C#N)=C2/CC[C@@H](C(=O)OC)N2)=N1
inactive: dose: 60.0 mg/kg/injection, schedule: Q01DX005 (ip), vehicle: saline with Tween-80 96 % of control | dose: 120.0 mg/kg/injection, schedule: Q01DX005 (ip), vehicle: saline with Tween-80 95 % of control | dose: 240.0 mg/kg/injection, schedule: Q01DX005 (ip), vehicle: saline with Tween-80 94 % of control

C=CCNC(=S)Nc1ccccn1
inactive: [10] 104 % of control | [11] 100 % of control | [12] 102 % of control

c1ccc(-c2nc3ccccc3n2CCc2ccncc2)nc1
inactive: [1] 107 % of control | [2] 104 % of control

CCn1cc(C(=O)O)c(=O)c2ccc(-c3cn(C)nc3C)nc21 (tested in a mixture with another compound)
inactive: dose: 50.0 mg/kg/injection, schedule: Q04DX002 (ip), vehicle: saline 99 % of control | dose: 100.0 mg/kg/injection, schedule: Q04DX002 (ip), vehicle: saline 99 % of control | dose: 200.0 mg/kg/injection, schedule: Q04DX002 (ip), vehicle: saline 98 % of control

CC1C(C(=O)c2ccccc2)=CNc2ccccc21 (centres undefined)
inactive: dose: 100.0 mg/kg/injection, schedule: Q01DX001 (ip), vehicle: saline with Tween-80 91 % of control | dose: 200.0 mg/kg/injection, schedule: Q01DX001 (ip), vehicle: saline with Tween-80 96 % of control | dose: 400.0 mg/kg/injection, schedule: Q01DX001 (ip), vehicle: saline with Tween-80 92 % of control
